Source: patent publication US20250296955A1, “PIN1 TARGETING COMPOUNDS AND DEGRADERS AND METHODS THEREOF” (The Regents of the University of California, priority 2024, published 2025)
Where a SMILES comes first, the peptide text is derived from it. [ ]: non-standard residue; d: D form. The star is where a group is joined. pY = N[C@@H](Cc1ccc(OP(=O)(O)O)cc1)C(=O)O; Phe(4-CN) = N#Cc1ccc(C[C@H](N)C(=O)O)cc1; Phe(4-F) = N[C@@H](Cc1ccc(F)cc1)C(=O)O; 4Pal = N[C@@H](Cc1ccncc1)C(=O)O; Pip = O=C(O)[C@@H]1CCCCN1; ClAc = O=C(CCl)*

Columns and labels:
Pin1 [1] = molecular target: T1, Pin1 (Homo sapiens, UniProt Q13526); experiment: Pin1 degradation in BxPC3 cells (western blot); assay type: cell-based; conditions: Bx-PC3 cell line, 25 μM, 24 h (FIG. 1B)
T1 sequence (Q13526 whole entry): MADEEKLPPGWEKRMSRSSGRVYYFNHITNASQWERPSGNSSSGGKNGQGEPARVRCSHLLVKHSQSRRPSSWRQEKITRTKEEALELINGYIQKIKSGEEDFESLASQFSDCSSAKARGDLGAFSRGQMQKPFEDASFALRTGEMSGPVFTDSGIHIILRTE
Description: Next, each cell line was exposed to a relatively high concentration of each of the Pin1 inhibitors from Table 1 and measured their ability to cause Pin1 degradation in the Bx-PC3 cell line under the experimental conditions reported in FIG. 1B. […] It was hypothesized that this observed degradation in the series correlated with the increased sensitivity of Pin1 to thermal degradation induced by BJP-07-017-3 in vitro (Table 1).
BxPC3, MIA PaCa-2, PANC-1, MDA-MB-231, and PC3 were obtained from the American Type Culture Collection (ATCC) and A549 NucLight Red cells were purchased from Essen Bioscience. BxPC3 and PC3 cells were cultured in RPMI (Corning) while PANC-1 cells were cultured in DMEM (Corning). MIA PaCa-2 cells were also cultured in DMEM, but with the addition of 2.5% horse serum. A549 NucLight cells were cultured in a Ham's F-12 nutriend mixture with GlutaMAX-1 (Gibco). All of the culture media were supplemented with 10% FBS. […]
At the end of the treatments, cells were lysed with a lysis buffer containing 20 mM Tris, pH 7.4, 120 mM NaCl, 1% Triton X-100, 0.5% sodium deoxycholate, 0.1% SDS, 1% IGEPAL, 5 mM EDTA, protease inhibitor cocktail and PhosSTOP (Sigma-Aldrich). […] Protein concentrations were determined using the Pierce BCA Protein Assay Kit (ThermoFisher Scientific) according to the manufacturer's instruction. […]

Pin1 [2] = molecular target: T1, Pin1; experiment: DELFIA displacement assay (displacement of biotinylated D-peptide from 6His-Pin1); assay type: binding; parameters: human Pin1 (residues 1-163); made in house; host or cells: E. coli BL21 (DE3) gold pLysS
Description: (§1) Important to the success of structure activity relations studies, robust biochemical, biophysical, and cell-based assays were implemented that enabled rapid and iterative evaluations of test Pin1 targeting agents. First, the DELFIA (Dissociation-enhanced lanthanide fluorescent immunoassay) assay platform was used to derive a robust heterogeneous assay to monitor the ability of test agents to displace the binding between Pin1 and the D-Peptide (Table 1), which was obtained in a biotinylated form (FIG. 10). […] Second, for an orthogonal biophysical assay denaturation thermal shift measurements were used. Pin1 was incubated with vehicle control (buffer with 1% DMSO), or test agents at protein: ligand ratio of 1:2 (20 μM protein-40 μM compound) for 10 min at 10° C. in the presence of the fluorescent dye SYPRO Orange. The samples were gradually exposed to increasing temperature (linear gradient from 10° C. to 95° C.), causing the protein to unfold. This unfolding allowed the fluorescent dye to bind to the protein's exposed hydrophobic residues, resulting in an increase in fluorescence. The thermal shift assay measures the protein's melting temperature (Tm), which is the temperature at which the protein denatures by 50%. Ligands can affect a protein target to thermal denaturation, which could manifest in a positive or negative shift in the protein denaturation temperature (ΔTm) (Bai N, Roder H, Dickson A, & Karanicolas J (2019) Scientific Reports 9; and Kranz J K & Schalk-Hihi C (2011) Fragment-Based Drug Design: Tools, Practical Approaches, and Examples 493:277-298). Using these two assays, a series of commercially available Pin1 inhibitors were profiled (Table 1). The non-covalent agent D-peptide resulted only moderately active, with an IC50 value of ˜3 μM that closely resembled the dissociation constant for this agent determined via isothermal titration calorimetry, and the ˜ 3 μM IC50 value as reported by a fluorescence polarization assay (Pinch B J, et al. (2020) Nat Chem Biol 16(9):979-987). […] (Table 1) was observed.
For the reported covalent agents such as sulfopin (Dubiella C, et al. (2021) Nat Chem Biol 17(9):954-963), BJP-07-017-3 (Pinch B J, et al. (2020) Nat Chem Biol 16(9):979-987), or KPT-6566 (Campaner E, et al. (2017) Nat Commun 8:15772), a 6-h pre-incubation period was included in the DELFIA assay to allow the covalent reaction to take place. For those agents, IC50 values that fell in the low nanomolar range were observed, consistent with what was reported previously for those compounds. […] To make those determinations in a broader panel of cancer cell lines three pancreatic cancer cell lines, BxPC3, MIA-PaCa-2, and PANC-1, the breast cancer cell line MDA-MB-231, the prostate cancer cell line PC3, and the non-small cell lung cancer cell line A549 were chosen. Each cell line represents various states of KRAS activating mutations (for example BxPC3 is wt-KRAS, while MIAPaCa2 carries the KRAS(G12C) mutation, and the PANC-1 the KRAS(G12D) (Miquel M, Zhang S, & Pilarsky C (2021) Front Cell Dev Biol 9:748631), A549 is KRAS(G12S) (Wang H, et al. (2019) EBioMedicine 49:106-117), MDA-MB-231 is KRAS(G13D) (Kim R K, et al. (2015) Exp Mol Med 47(1):e137), PC3 is wt-KRAS (Bouali S, et al. (2009) Oncol Rep 21(3):731-735). Pin1 protein levels in these cell lines were established using a specific Pin1 antibody in western blot analyses (FIG. 1A). The data confirmed that all these selected human cancer cell lines expressed a significant level of Pin1 (FIG. 1A).
Each well of 96-well streptavidin-coated plates (PerkinElmer) was incubated with 100 μL of 200 nM biotinylated D-peptide for 2 h and washed 3 times with a wash solution (PerkinElmer). Subsequently, a mixture containing Pin1, and a serial dilution of the test compounds were pre-incubated for 6 h. Eu-N1-labeled anti-6x-His antibody (PerkinElmer, 1:2000) was then added to this mixture and further incubated in the biotinylated D-peptide-bound plates for another 2 h. […]

Pin1 [3] = molecular target: T1, Pin1; experiment: Denaturation thermal shift assay (SYPRO Orange); assay type: binding; parameters: human Pin1 (residues 1-163); made in house; host or cells: E. coli BL21 (DE3) gold pLysS; conditions: for ΔTm (° C.): Table 3, single transition, ± SE of four replicates
Description: as §1
Thermal shift assays for Pin1 alone and in the presence of the inhibitors were obtained with a BioRad CFX Connect Real-Time PCR Detection System. Each data point was collected in quadruplicate. Each sample was prepared using buffer 50 mM Phosphate pH 7.5, 150 mM NaCl, 1% DMSO. Protein: ligand ratio used was 1:2 (20 μM protein-40 μM compound), and SYPRO Orange was used. Incubation of the Pin1 protein with the compounds was performed at 10° C. for 10 min. Samples were then heated from 10 to 95° C. with heating increments of 0.05° C., over 30 min. Fluorescence intensity was measured within the excitation/emission ranges 470-505/540-700 nm.

Row | Structure (SMILES) | IC50 (Pin1 [2]; Table 3, ± SD from duplicates) [nM] | ΔTm (° C.) (Pin1 [3]) [°C] | also measured
1 | CC(C)(C)CN(C(=O)CCl)C1CCS(=O)(=O)C1 (stereo not drawn) [Sulfopin] | – | – | Pin1 degradation in cell (Pin1 [1]): significant Pin1 degradation
2 | NC(=O)[C@H](Cc1c[nH]c2ccccc12)NC(=O)[C@@H]1C[C@H]2CCCC[C@@H]2N1C(=O)[C@H](Cc1c[nH]c2ccccc12)NC(=O)CCl [164A1] | – | – | IC50 (Pin1 [2]; Table 5): 1830 ± 394 nM; share of first denaturation transition (Pin1 [3]; Table 4, percentage in brackets after first ΔTm): 80%; share of second denaturation transition (Pin1 [3]; Table 4, percentage in brackets after second ΔTm): 20%; ΔTm (° C.), first of two denaturation transitions (Pin1 [3]; Table 4, two transitions observed, likely incomplete complex formation): −0.38 ± 0.15 °C
3 | NC(=O)[C@H](Cc1c[nH]c2ccccc12)NC(=O)[C@@H]1CCCCN1C(=O)[C@H](Cc1ccc(F)cc1)NC(=O)CCl [158G11] (ClAc-[Phe(4-F)]-[Pip]-Trp-NH2) | 146 ± 12 | −10.57 ± 0.11 | –
4 | NC(=O)[C@H](Cc1c[nH]c2ccccc12)NC(=O)[C@@H]1CCCCN1C(=O)[C@H](Cc1ccc(O)cc1)NC(=O)CCl [158G5] (HELM PEPTIDE1{[O=C(CCl)[*:2]].Y.[O=C([C@@H]1CCCCN1[*:1])[*:2]].W.[am]}$$$$V2.0) | 119 ± 6 | −9.29 ± 0.04 | –
5 | NC(=O)[C@H](Cc1c[nH]c2ccccc12)NC(=O)[C@@H]1CCCCN1C(=O)[C@H](Cc1ccc(OP(=O)(O)O)cc1)NC(=O)CCl [158E7] (ClAc-[pY]-[Pip]-Trp-NH2) | 327 ± 25 | −7.08 ± 0.22 | –
6 | NC(=O)[C@H](Cc1c[nH]c2ccccc12)NC(=O)[C@@H]1CCCCN1C(=O)[C@H](Cc1ccncc1)NC(=O)CCl [158H1] (ClAc-[4Pal]-[Pip]-Trp-NH2) | 99 ± 4 | −9.18 ± 0.07 | –
7 | N#Cc1ccc(C[C@H](NC(=O)CCl)C(=O)N2CCCC[C@H]2C(=O)N[C@@H](Cc2c[nH]c3ccccc23)C(N)=O)cc1 [158G4] (ClAc-[Phe(4-CN)]-[Pip]-Trp-NH2) | 118 ± 21 | −9.71 ± 0.07 | –
